Several values for one entry are separate records, joined by “and”; a condition that tells them apart may be missing. Equal entries are not always repeated. Entries after “also recorded” stand apart in the source; their conditions may differ.
Legend:
[1] = tested on: crude M. smegmatis enzymes (ESH pathway, EgtE); experiment: Biotransformation of substrates to ergothioneine using crude M. smegmatis enzymes preparation (LC/MS); type: biochemical, Mycobacterium smegmatis; conditions: for concentration of ESH produced: 50 mM substrate, crude M. smegmatis cell free extract, 37° C., pH=7.4, 1 day, LCMS, control (endogenous ESH) 5.70 ng/ml
Procedure: FIG. 1 In vitro reconstitution of ESH; 100 μl reactions containing 20 mM Tris HCl pH=7.4, 20 mM NaCl, 0.2 Mm FeSO4.7H2O, 0.5 mM mercaptoethanol, 83 μl of crude M. smeg enzymes and 50 mM of either (a) S-(β-amino-β-carboxyethyl)ergothioneine sulfide (15); (b) S-(β-amino-β-carboxyethyl)ergothioneine sulfoxide (II) and (c) control. The crude enzyme reactions were incubated for 1 day at 37° C. followed by analysis by LC/MS.
The enzymatic and non-enzymatic PLP mediated synthesis of ESH from the synthetic sulfoxide (II) was compared. To this end, crude M. smegmatis cell free extracts were isolated from cultures grown and harvested at the late exponential phase, characterised by high enzymatic activity.^10
The crude enzymatic transformation of the ESH biosynthetic pathway precursors, including sulfide and sulfoxide variants were evaluated by the concomitant production of ESH in excess of basal levels as determined by LCMS. ESH precursor metabolites (β-amino-β-carboxyethyl)ergothioneine sulfide (15) and (β-amino-β-carboxyethyl)ergothioneine sulfoxide (II) were incubated with the crude cell free extract at 37° C., pH=7.4 for 1 day, and analyzed by LCMS.
The control reaction containing only the crude M. smegmatis cell free extract was also treated under the same conditions as the metabolites. The concentration of ESH thus obtained was 5.70 (±0.30) ng/ml, which was equated to that of endogenous ESH. This concentration was above the limit of detection (0.78 ng/ml), thus any increase in the concentration of ESH in the experiment above 1 ng/ml is considered significant enough to be ascribed to basal levels or biotransformation of the respective substrates by the crude endogenous enzymes of the ESH pathway. […]

[2] = Non enzymatic cleavage of C-S bond catalysed by PLP (LC/MS); conditions: 50 mM substrate plus 50 mM PLP, 20 mM Tris HCl pH=7.4, 37° C., 24 h
Procedure: FIG. 2 Non enzymatic production of ESH catalysed by PLP. TIC extracted for ESH and PLP using S-(β-amino-β-carboxyethyl)ergothioneine sulfide (15), S-(β-amino-β-carboxyethyl)ergothioneine sulfoxide (II) and S-(β-amino-β-carboxyethyl)ergothioneine sulfone (III).
FIG. 3 Non enzymatic production of ESH graph contain; 100 μl reactions containing 20 mM Tris HCl pH=7.4, 20 mM NaCl, 50 mM of either (1) sulfide (15) plus PLP, (2) sulfoxide (II) plus PLP, (3) sulfone (III) plus PLP respectively. Reaction time: 24 h.
Three sets of 100 μl reactions (1-3) containing 20 mM Tris HCl pH=7.4, and 50 mM of either (1) S-(β-amino-β-carboxyethyl)ergothioneine sulfide (15) and PLP (2) S-(β-amino-β-carboxyethyl)ergothioneine sulfoxide (II) and PLP or (3) S-(β-amino-βcarboxyethyl)ergothioneine sulfone (III) and PLP. The non-enzymatic reactions were incubated for 1 day at 37° C., followed by lyophilisation and subsequent reconstitution in LC buffer before analysis by LC/MS (FIGS. 2 and 3).

[3] = tested on: crude cell free extracts of Neurospora Crassa; conditions: synthetic sulfoxide of the 1974 prior synthesis; cited from earlier work

C[N+](C)(C)[C@@H](Cc1c[nH]c(S(=O)(=O)C[C@H](N)C(=O)O)n1)C(=O)O [III]
stability to Egt E enzyme mediated C-S cleavage [1]: stable | formation of ESH (non-enzymatic, PLP) [2]: did not produce ESH at all

C[N+](C)(C)[C@@H](Cc1c[nH]c([S+]([O-])C[C@H](N)C(=O)O)n1)C(=O)O (stereo partly shown) [II]
concentration of ESH produced [1]: 22.6 ng/mL | formation of ESH (non-enzymatic, PLP) [2]: no ESH at all; also recorded: did not produce ESH at all | cleavage to ESH by crude cell free extracts [3]: extensively cleaved to ESH

C[N+](C)(C)[C@@H](Cc1c[nH]c(SC[C@H](N)C(=O)O)n1)C(=O)O [compound 15, S-(β-amino-β-carboxyethyl)ergothioneine sulfide]
concentration of ESH produced [1]: 19.2 ng/mL | formation of ESH (non-enzymatic, PLP) [2]: 96.3 ng/mL and 96.34 ng/mL
